Legend:
[1] = compound: Cc1c2c(nn1C)CSCc1cc(n(C)n1)CSc1cc(c3ccccc3c1)OCCCc1c(C(=O)O)n(C)c3c-2c(Cl)ccc13 [AZD5991]; conditions: max 1 µM
Outline: (§1)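 Viability was measured with CellTiter-Glo 2.0 luminescence after 72 hours of dosing at a final DMSO of typically 0.2%, and scaled between blank-well and DMSO-well means. Beforehand, cancer cell lines sat 24 hours at 37°C and 5% CO2 in 1536-well plates in 7.5 μl DMEM/F12 or RPMI with 10% FBS. A non-linear mixed effects model fitted two-parameter logistic curves to the dose responses. The single-agent IC50 comes from these fits.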

[2] = compound: CC(C)n1c(=O)n(C)c2cnc3cc(F)c(-c4ccc(OCCCN5CCCCC5)nc4)cc3c21 [AZD1390]; conditions: max 0.3 µM
Outline: as §1

[3] = compound: Nc1ccn([C@@H]2O[C@H](CO)[C@@H](O)C2(F)F)c(=O)n1 [Gemcitabine]; conditions: max 0.3 µM
Outline: as §1

[4] = compound: C1CN(CCC1(C(=O)N[C@@H](CCO)C2=CC=C(C=C2)Cl)N)C3=NC=NC4=C3C=CN4 [AZD5363]; conditions: max 10 µM
Outline: as §1

[5] = compound: CCc1c2c(nc3ccc(O)cc13)-c1cc3c(c(=O)n1C2)COC(=O)[C@]3(O)CC [SN-38]; conditions: max 0.3 µM
Outline: as §1

[6] = compound: C[C@@H](Nc1cc(F)cc(F)c1)c1cc(C(=O)N(C)C)cc2c(=O)cc(N3CCOCC3)oc12 [AZD8186]; conditions: max 10 µM
Outline: as §1

[7] = compound: O=c1[nH]cc(F)c(=O)[nH]1 [5-Fluorouracil]; conditions: max 20 µM
Outline: as §1

[8] = compound: COc1cc(Nc2ncc3c(n2)-c2ccc(Cl)cc2C(c2c(F)cccc2OC)=NC3)ccc1C(=O)O [Alisertib]; conditions: max 10 µM
Outline: as §1

[9] = compound: C=CCn1c(=O)c2cnc(Nc3ccc(N4CCN(C)CC4)cc3)nc2n1-c1cccc(C(C)(C)O)n1 [AZD1775]; conditions: max 3 µM
Outline: as §1

[10] = compound: O=C(c1cc(Cc2n[nH]c(=O)c3ccccc23)ccc1F)N1CCN(C(=O)C2CC2)CC1 [Olaparib]; conditions: max 10 µM
Outline: as §1

[11] = compound: NC1(c2ccc(-c3nc4ccn5c(=O)[nH]nc5c4cc3-c3ccccc3)cc2)CCC1 [MK-2206]; conditions: max 10 µM
Outline: as §1

[12] = compound: CC1=CN2[C@@H](C1)C=NC3=CC(=C(C=C3C2=O)OC)OCCCCCOC4=C(C=C5C(=C4)N=C[C@@H]6CC(=CN6C5=O)C)OC [SG3199]; conditions: max 0.001 µM
Outline: as §1

[13] = compound: O=C(Nc1ccc2[nH]nc(-c3ccncc3)c2c1)[C@@H]1CCN(CC(=O)N2CCN(c3ccc(-c4ncccn4)cc3)CC2)C1; conditions: max 5 µM
Outline: as §1

[14] = compound: CC(=O)c1c(C)c2cnc(Nc3ccc(N4CCNCC4)cn3)nc2n(C2CCCC2)c1=O [Palbociclib]; conditions: max 10 µM
Outline: as §1

[15] = compound: CN(C)CCCOc1ccc(-c2ccc3ncc4c(c3c2)n(C2CCOCC2)c(=O)n4C)cn1 [AZD0156]; conditions: max 3 µM
Outline: as §1

[16] = compound: COc1cc2ncnc(Nc3ccc(F)c(Cl)c3)c2cc1OCCCN1CCOCC1 [Gefitinib]; conditions: max 10 µM
Outline: as §1

[17] = compound: COc1cc([C@@H]2c3cc4c(cc3[C@@H](O[C@@H]3O[C@@H]5CO[C@@H](C)O[C@H]5[C@H](O)[C@H]3O)[C@H]3COC(=O)[C@H]23)OCO4)cc(OC)c1O [Etoposide]; conditions: max 10 µM
Outline: as §1

[18] = compound: CC(=O)O[C@H]1C(=O)[C@@]2(C)[C@H]([C@H](OC(=O)c3ccccc3)[C@]3(O)C[C@H](OC(=O)[C@H](O)[C@@H](NC(=O)c4ccccc4)c4ccccc4)C(C)=C1C3(C)C)[C@]1(OC(C)=O)CO[C@@H]1C[C@@H]2O [Paclitaxel]; conditions: max 3 µM
Outline: as §1

[19] = compound: CCN(CCO)CCCOc1ccc2c(Nc3cc(CC(=O)Nc4cccc(F)c4)[nH]n3)ncnc2c1 [AZD2811]; conditions: max 1 µM
Outline: as §1

[20] = compound: CC(=O)Nc1cccc(-n2c(=O)n(C3CC3)c(=O)c3c(Nc4ccc(I)cc4F)n(C)c(=O)c(C)c32)c1 [Trametinib]; conditions: max 1 µM
Outline: as §1

[21] = compound: C[C@@H](c1ccc2nccn2c1)n1nnc2ncc(-c3cnn(C)c3)nc21 [Savolitinib]; conditions: max 1 µM
Outline: as §1

[22] = compound: COc1nnc2ccc(N3CCC(c4ccc(OCCN5CCN(C)C(=O)[C@H]5C)cc4)CC3)nn12 [AZD5153]; conditions: max 1 µM
Outline: as §1

[23] = compound: COc1cccc2c1C(=O)c1c(O)c3c(c(O)c1C2=O)C[C@@](O)(C(=O)CO)C[C@@H]3O[C@H]1C[C@H](N)[C@H](O)[C@H](C)O1 [Doxorubicin]; conditions: max 1 µM
Outline: as §1

[24] = compound: CN(CC[C@H](CSC1=CC=CC=C1)NC2=C(C=C(C=C2)S(=O)(=O)NC(=O)C3=CC=C(C=C3)N4CCC(CC4)[C@H](C5=CC=CC=C5C6=CC=C(C=C6)Cl)O)S(=O)(=O)C(F)(F)F)CCO [AZD4320]; conditions: max 1 µM
Outline: as §1

[25] = compound: C1CC(C1)(C(=O)[O-])C(=O)[O-].N.N.[Pt+2] [Carboplatin]; conditions: max 10 µM
Outline: as §1

[26] = compound: C[C@@H]1COCCN1C2=NC(=NC(=C2)C3(CC3)[S@](=N)(=O)C)C4=C5C=CNC5=NC=C4 [AZD6738]; conditions: max 10 µM
Outline: as §1

[27] = compound: CS(=O)(=O)CCNCc1ccc(-c2ccc3ncnc(Nc4ccc(OCc5cccc(F)c5)c(Cl)c4)c3c2)o1 [Lapatinib]; conditions: max 10 µM
Outline: as §1

[28] = compound: C[C@@H](Oc1cc(-c2cnn(C3CCNCC3)c2)cnc1N)c1c(Cl)ccc(F)c1Cl [Crizotinib]; conditions: max 10 µM
Outline: as §1

[29] = compound: CC1(C)CCC(CN2CCN(c3ccc(C(=O)NS(=O)(=O)c4ccc(NCC5CCOCC5)c([N+](=O)[O-])c4)c(Oc4cnc5[nH]ccc5c4)c3)CC2)=C(c2ccc(Cl)cc2)C1 [Venetoclax]; conditions: max 1 µM
Outline: as §1

[30] = compound: Cc1nc(-c2cn3c(n2)-c2ccc(-c4cnn(C(C)(C)C(N)=O)c4)cc2OCC3)n(C(C)C)n1 [Taselisib]; conditions: max 10 µM
Outline: as §1

[31] = compound: N#Cc1cnc(Nc2cc(NC[C@H]3CNCCO3)c(C(F)(F)F)cn2)cn1 [SRA737]; conditions: max 10 µM
Outline: as §1

[32] = compound: COc1cccc(OCCCN)c1-c1cc(Nc2cnc(C#N)cn2)n[nH]1 [Prexasertib]; conditions: max 1 µM
Outline: as §1

[33] = compound: Cn1cnc2c(F)c(Nc3ccc(Br)cc3Cl)c(C(=O)NOCCO)cc21 [Selumetinib]; conditions: max 10 µM
Outline: as §1

[34] = compound: Cc1cc2ncnn2cc1Nc1ncc2c(n1)n(C1CCOCC1)c(=O)n2C [AZD7648]; conditions: max 10 µM
Outline: as §1

[35] = compound: CC1=C(C(=CC=C1)Cl)NC(=O)C2=CN=C(S2)NC3=CC(=NC(=N3)C)N4CCN(CC4)CCO [Dasatinib]; conditions: max 2 µM
Outline: as §1

Row | Cell Line | IC50, cell viability 72 h [1] | IC50, cell viability 72 h [2] | IC50, cell viability 72 h [3] | IC50, cell viability 72 h [4] | IC50, cell viability 72 h [5] | IC50, cell viability 72 h [6] | IC50, cell viability 72 h [7] | IC50, cell viability 72 h [8] | IC50, cell viability 72 h [9] | IC50, cell viability 72 h [10] | IC50, cell viability 72 h [11] | IC50, cell viability 72 h [12] | IC50, cell viability 72 h [13] | IC50, cell viability 72 h [14] | IC50, cell viability 72 h [15] | IC50, cell viability 72 h [16] | IC50, cell viability 72 h [17] | IC50, cell viability 72 h [18] | IC50, cell viability 72 h [19] | IC50, cell viability 72 h [20] | IC50, cell viability 72 h [21] | IC50, cell viability 72 h [22] | IC50, cell viability 72 h [23] | IC50, cell viability 72 h [24] | IC50, cell viability 72 h [25] | IC50, cell viability 72 h [26] | IC50, cell viability 72 h [27] | IC50, cell viability 72 h [28] | IC50, cell viability 72 h [29] | IC50, cell viability 72 h [30] | IC50, cell viability 72 h [31] | IC50, cell viability 72 h [32] | IC50, cell viability 72 h [33] | IC50, cell viability 72 h [34] | IC50, cell viability 72 h [35]
1 | DOK (Oral Cavity Carcinoma) | > 1000 nM | > 300 nM | > 300 nM | 9.61 µM | 169 nM | > 10 µM | > 20 µM | 4.51 µM | 1260 nM | > 10 µM | > 10 µM | > 1 nM | 633 nM | > 10 µM | > 3000 nM | > 10 µM | > 10 µM | 5.13 nM | > 1000 nM | 328 nM | > 1000 nM | 652 nM | > 1000 nM | > 1000 nM | > 10 µM | > 10 µM | 5.76 µM | > 10 µM | > 1000 nM | 0.253 µM | > 10 µM | > 1000 nM | 3.66 µM | > 10 µM | 165 nM
2 | MSTO-211H (Mesothelioma) | > 1000 nM | > 300 nM | 21.9 nM | > 10 µM | 47 nM | > 10 µM | > 20 µM | 3.84 µM | > 3000 nM | > 10 µM | > 10 µM | > 1 nM | > 5000 nM | > 10 µM | > 3000 nM | > 10 µM | 9.06 µM | 2950 nM | > 1000 nM | 874 nM | > 1000 nM | > 1000 nM | 857 nM | > 1000 nM | > 10 µM | 7.72 µM | > 10 µM | > 10 µM | > 1000 nM | > 10 µM | > 10 µM | 54.4 nM | > 10 µM | > 10 µM | > 2000 nM
3 | SK-MEL-1 (Melanoma) | > 1000 nM | > 300 nM | > 300 nM | > 10 µM | 135 nM | > 10 µM | > 20 µM | > 10 µM | > 3000 nM | > 10 µM | > 10 µM | > 1 nM | 846 nM | > 10 µM | > 3000 nM | > 10 µM | > 10 µM | > 3000 nM | > 1000 nM | 5.25 nM | > 1000 nM | > 1000 nM | > 1000 nM | > 1000 nM | > 10 µM | > 10 µM | > 10 µM | > 10 µM | > 1000 nM | > 10 µM | > 10 µM | 659 nM | 0.509 µM | > 10 µM | > 2000 nM
4 | H4 (Low Grade Glioma) | > 1000 nM | > 300 nM | 22.3 nM | 6.25 µM | 23.3 nM | 3.8 µM | 9.69 µM | 0.312 µM | 108 nM | > 10 µM | > 10 µM | > 1 nM | > 5000 nM | 6.45 µM | > 3000 nM | > 10 µM | 2 µM | 32.4 nM | > 1000 nM | > 1000 nM | > 1000 nM | 164 nM | 157 nM | > 1000 nM | > 10 µM | 3.6 µM | > 10 µM | 3 µM | > 1000 nM | 3.68 µM | > 10 µM | 60.4 nM | > 10 µM | > 10 µM | > 2000 nM
5 | SNG-M (Endometrial Carcinoma) | > 1000 nM | > 300 nM | 33 nM | > 10 µM | 153 nM | > 10 µM | > 20 µM | 2.44 µM | 874 nM | > 10 µM | > 10 µM | > 1 nM | > 5000 nM | > 10 µM | > 3000 nM | > 10 µM | > 10 µM | 6.87 nM | > 1000 nM | > 1000 nM | > 1000 nM | > 1000 nM | > 1000 nM | > 1000 nM | > 10 µM | 1.31 µM | > 10 µM | > 10 µM | > 1000 nM | 3.82 µM | 5.19 µM | 23.1 nM | > 10 µM | > 10 µM | 259 nM

— the supplement of paper PMC11061612
